According to ChEMBL document CHEMBL5154893, “Design, Synthesis, and Biological Evaluation of Potent 20S Proteasome Activators for the Potential Treatment of α-Synucleinopathies” (J Med Chem, 2022):

Columns and labels:
[1] = biological target: T1, 20S proteasome (Homo sapiens) (UniProt P49721+P20618+P28074+P28062+P28065+P28072+P25786+P25787+P25788+P25789+P28066+P60900+O14818+Q8TAA3+P40306+A5LHX3+P49720+P28070+Q99436); assay: Activation of human 20S proteosome at trypsin-like site assessed as substrate degradation using Boc-LLR-AMC as flurogenic substrate preincubated for 15 mins followed by substrate addition and measured after 1 hr by spectrometric analysis; type: protein-complex assay
[2] = biological target: T1, 20S proteasome (Homo sapiens); assay: Activation of human 20S proteosome assessed as maximum fold change in substrate degradation using Suc-LLVY-AMC/Z-LLE-AMC/Boc-LLR-AMC as flurogenic substrate preincubated for 15 mins followed by substrate addition and measured after 1 hr by spectrometric analysis relative to control; type: protein-complex assay; settings: filed as activator
[3] = biological target: T1, 20S proteasome (Homo sapiens); assay: Activation of human 20S proteosome at trypsin-like site assessed as maximum fold change in substrate degradation using Boc-LLR-AMC as flurogenic substrate preincubated for 15 mins followed by substrate addition and measured after 1 hr by spectrometric analysis relative to control; type: protein-complex assay; settings: filed as activator
[4] = biological target: T1, 20S proteasome (Homo sapiens); assay: Activation of human 20S proteosome at caspase-like site assessed as substrate degradation using Z-LLE-AMC as flurogenic substrate preincubated for 15 mins followed by substrate addition and measured after 1 hr by spectrometric analysis; type: protein-complex assay
[5] = biological target: T1, 20S proteasome (Homo sapiens); assay: Activation of human 20S proteosome at caspase-like site assessed as maximum fold change in substrate degradation using Z-LLE-AMC as flurogenic substrate preincubated for 15 mins followed by substrate addition and measured after 1 hr by spectrometric analysis relative to control; type: protein-complex assay; settings: filed as activator
[6] = biological target: T1, 20S proteasome (Homo sapiens); assay: Activation of human 20S proteosome assessed as substrate degradation using Suc-LLVY-AMC/Z-LLE-AMC/Boc-LLR-AMC as flurogenic substrate preincubated for 15 mins followed by substrate addition and measured after 1 hr by spectrometric analysis; type: protein-complex assay
[7] = biological target: T1, 20S proteasome (Homo sapiens); assay: Activation of human 20S proteosome at chymotrypsin like site assessed as substrate degradation using Suc-LLVY-AMC as flurogenic substrate preincubated for 15 mins followed by substrate addition and measured after 1 hr by spectrometric analysis; type: protein-complex assay
[8] = biological target: T1, 20S proteasome (Homo sapiens); assay: Activation of human 20S proteosome at chymotrypsin like site assessed as maximum fold change in substrate degradation using Suc-LLVY-AMC as flurogenic substrate preincubated for 15 mins followed by substrate addition and measured after 1 hr by spectrometric analysis relative to control; type: protein-complex assay; settings: filed as activator
[9] = test system: HEK293T; assay: Activation of 20S proteasome mediated full length alpha-synuclein A53T mutant degradation expressed in HEK293T cells assessed as residual protein at 15 uM incubated for 24 hrs by Western blot analysis relative to control; type: cell-based; settings: Homo sapiens, filed as activator
[10] = species: Homo sapiens; assay: Activation of human 26S proteosome assessed as increase in fold change in proteolytic degradation using SUC-ANW-AMC/Z-LLE-AMC/Boc-LRRAMC as flurogenic substrate at 80 uM preincubated for 15 mins followed by substrate addition and measured after 1 hr by spectrometric analysis relative to control; settings: filed as activator
[11] = species: Homo sapiens; assay: Activation of human 20S-proteosome mediated full length alpha-synuclein degradation by measuring remaining protein at 15 uM incubated for 45 mins by Western blot analysis relative to control
[12] = species: Homo sapiens; assay: Activation of human 20S-proteosome mediated degradation of full length wild type alpha-synuclein at 10 uM incubated for 45 mins by Western blot analysis relative to control
[13] = test system: HEK-293T; assay: Cytotoxicity in human HEK293T cells assessed as reduction in cell viability at 15 uM incubated for 16 hrs by CellTiter-glo assay; type: toxicity, cell-based
[14] = species: Homo sapiens; assay: Activation of human 20S-proteosome mediated full length alpha-synuclein degradation by measuring remaining protein at 10 uM incubated for 45 mins by Western blot analysis relative to control
[15] = species: Homo sapiens; assay: Activation of human 20S-proteosome mediated full length alpha-synuclein degradation by measuring remaining protein at 2.5 uM incubated for 45 mins by Western blot analysis relative to control
[16] = species: Homo sapiens; assay: Activation of human 20S-proteosome mediated full length alpha-synuclein degradation by measuring remaining protein at 5 uM incubated for 45 mins by Western blot analysis relative to control
[17] = test system: HEK293T; assay: Activation of 20S proteasome mediated full length alpha-synuclein A53T mutant degradation expressed in HEK293T cells assessed as residual protein at 5 uM incubated for 24 hrs by Western blot analysis relative to control; type: cell-based; settings: Homo sapiens
[18] = species: Homo sapiens; assay: Activation of human 20S-proteosome mediated degradation of full length wild type alpha-synuclein at 15 uM incubated for 45 mins by Western blot analysis relative to control; settings: filed as activator

Row | Structure (SMILES) | EC200 ([1]; filed as activator) [µM] | fold change (FC) [2] | fold change (FC) [3] | EC200 ([4]; filed as activator) [µM] | fold change (FC) [5] | EC200 ([6]; filed as activator) [µM] | EC200 ([7]; filed as activator) [µM] | fold change (FC) [8] | EC200 [4] [µM] | EC200 [7] [µM] | EC200 [1] [µM] | EC200 [6] [µM] | further results
1 | O=[N+]([O-])c1cccc(CN2c3ccccc3Sc3ccc(Cl)cc32)c1 | 1.6 | 8 | 8 | 1.2 | 12 | 1.1 | 1.1 | 9 | – | – | – | – | –
2 | O=C(CCN1c2ccccc2Sc2ccc(Cl)cc21)Nc1ccccc1 | 80 | 2.5 | 2 | – | – | 40 | – | – | > 80 | > 80 | – | – | –
3 | COC(=O)c1ccc(CN2c3ccccc3Sc3ccc(Cl)cc32)cc1 | 2.6 | 9 | 15 | 2.7 | 7 | 1.4 | 1.9 | 1.2 | – | – | – | – | Activity [9]: 25%; fold change (FC) [10]: 2; Activity ([11]; filed as activator): 33%
4 | O=C(CCN1c2ccccc2Sc2ccc(Cl)cc21)N(c1ccc(F)cc1)c1ccc(F)cc1 | 0.3 | 11 | 6 | 1.8 | 9.4 | 0.4 | 0.7 | 9.4 | – | – | – | – | Activity [12]: 73%; Activity [13]: > 80%; Activity [14]: 27%; Activity [15]: 69%; Activity [11]: 19%; Activity [16]: 51%; Activity [17]: 67%
5 | Nc1cccc(CN2c3ccccc3Sc3ccc(Cl)cc32)c1 | 9.2 | 8 | 10 | 3.8 | 10 | 3.6 | 6.5 | 9 | – | – | – | – | –
6 | NC(=O)CCCCN1c2ccccc2Sc2ccc(Cl)cc21 | – | – | – | – | – | – | – | – | > 80 | > 80 | > 80 | > 80 | –
7 | Clc1ccc2c(c1)N(Cc1ccccc1)c1ccccc1S2 | 3.1 | 2 | 2 | – | – | 1.5 | 2.8 | 3 | > 80 | – | – | – | –
8 | CCOC(=O)[C@]1(c2ccccc2)N=C(c2ccc(OC)cc2)N(Cc2ccccc2)[C@@H]1c1ccc(NCc2ccccc2)cc1 | – | – | – | – | – | – | – | – | – | – | – | – | Activity [11]: 22%
9 | CN(C)CCCN1c2ccccc2Sc2ccc(Cl)cc21 | – | 4 | – | – | – | 13.5 | 7 | 8 | > 80 | – | > 80 | – | fold change (FC) [10]: 2; Activity ([11]; filed as activator): 34%; Activity [18]: 80%
10 | CC(=O)Oc1ccc(CN2c3ccccc3Sc3ccc(Cl)cc32)cc1 | – | – | – | – | – | – | – | – | > 80 | > 80 | > 80 | > 80 | –
11 | CN(C)C(=O)CCN1c2ccccc2Sc2ccc(Cl)cc21 | – | – | – | – | – | – | – | – | > 80 | > 80 | > 80 | > 80 | –
12 | Oc1ccc(CN2c3ccccc3Sc3ccc(Cl)cc32)cc1 | – | – | – | – | – | – | – | – | > 80 | > 80 | > 80 | > 80 | –
13 | COc1cccc(CN2c3ccccc3Sc3ccc(Cl)cc32)c1 | 5.4 | 4 | 2 | 1.3 | 4 | 1.5 | – | – | – | > 80 | – | – | –
14 | COC(=O)c1cccc(CN2c3ccccc3Sc3ccc(Cl)cc32)c1 | 1.9 | 6 | 8 | 9.7 | 4 | 2.4 | 2.4 | 6 | – | – | – | – | –
15 | CC(C)(C)OC(=O)c1ccc(CN2c3ccccc3Sc3ccc(Cl)cc32)cc1 | – | – | – | – | – | – | – | – | > 80 | > 80 | > 80 | > 80 | –
16 | CN(C(=O)CCN1c2ccccc2Sc2ccc(Cl)cc21)c1ccc(F)cc1 | – | – | – | – | – | – | – | – | > 80 | > 80 | > 80 | > 80 | –
17 | N#CCCCCN1c2ccccc2Sc2ccc(Cl)cc21 | – | – | – | – | – | – | – | – | > 80 | > 80 | > 80 | > 80 | –
